Measured values: patent US20180135022A1, “METHOD FOR PRODUCING ARTIFICIAL SYNCYTIOTROPHOBLAST AND PROGENITOR CELL THEREOF” (Sumitomo Chemical Company, Limited, priority 2015, published 2018)
Where two headings read alike, the source gives them in different places.

Tests used:
[1] = test system: cell layer of cells differentiated from KhES-1 cells; conditions: human, 120 min
Description: (§1) After two days from the seeding to the cell culture insert, the electric resistance (Ω) of the cell layer formed on the cell culture insert was measured by using a Millicell ERS-2 (Millipore), and from the obtained measurement value, the electric resistance of the blank in which cells are not seeded was subtracted, and the resultant value was multiplied with the area of the membrane filter (cm^2) to determine a transepithelial electric resistance (TEER, Ω·cm^2).
(§2) The culture medium in the insert and in the multiple well plate was replaced by Hanks' Balanced Salt Solution (HBSS) (no phenol red, Life Technologies), and incubated for 30 minutes to 45 minutes at 37° C. 5% CO2. The culture medium in the insert (apical side) is replaced by HBSS containing a test substance, and cultured at 37° C. under stirring at 300 rpm.
(§3) After 120 minutes from addition of the test substance, 100 μl of HBSS containing the permeated test substance was collected from inside the multiple well plate, and the same amount of HBSS was added to the collected HBSS. By quantifying the test substance in the culture medium in the multiple well plate by LC-MS, the permeability of the test substance in the cell layer was evaluated. A value obtained by dividing the permeation amount of each test substance by the permeation amount of antipyrine is shown as an in vitro relative permeation amount in Table 4.

[2] = test system: cell layer of cells differentiated from 201B7 cells; conditions: human, 120 min
Description: (§4) The culture medium in the insert and in the multiple well plate was replaced by Hanks' Balanced Salt Solution (HBSS) (no phenol red, Life Technologies), and incubated for 30 minutes to 45 minutes at 37° C. […] The culture medium in the insert (apical side) is replaced by HBSS containing a test substance, and cultured at 37° C. under stirring at 300 rpm.
(§5) After 120 minutes from addition of the test substance, 100 μl of HBSS containing the test substance was collected from inside the multiple well plate, and the same amount of HBSS was added to the collected HBSS. By quantifying the test substance in the culture medium in the multiple well plate by LC-MS, the permeability of the test substance in the cell layer was evaluated. A value obtained by dividing the permeation amount of each test substance by the permeation amount of antipyrine is shown as an in vitro relative permeation amount in Table 5.

term placenta = conditions: cited from earlier work
KhES-1 cells = test: Syncytin gene mRNA by real-time PCR after differentiation culturing, Example 3; type: cell-based, human; conditions: single agent added to Basal differentiation medium B (0.1 μM S26948, 10 μM GW 1929, 0.1 μM CGP 7930, 10 nM SR 11237 or 1 nM retinoic acid), day 5; in comparison with Control
Description: According to the method described in (1) in Example 2, KhES-1 cells were maintenance cultured, and then subjected to the MEF removing operation. […] S26948, GW 1929, CGP 7930 and SR 11237 were dissolved in DMSO so that they were respectively 100 mM, and retinoic acid was dissolved in DMSO so that it was 10 mM, and each DMSO solution was added to Basal differentiation medium B.
On day 5 of the culturing of the culture using the differentiation medium, total RNA was extracted from cells by using RNeasy Micro Kit (QIAGEN). The obtained total RNA was reverse transcribed by using SuperScript III (Invitrogen), and by real-time PCR using the obtained DNA as a template, TaqMan probe (Applied biosystems) and TaqMan Fast advanced master mix (Applied biosystems), the expression amount of Syncytin gene which is a marker gene of syncytiotrophoblast was examined. For the cells obtained in each culturing, the mRNA amount of Syncytin gene and the mRNA amount of GAPDH gene which is a house keeping gene were determined by real-time PCR. The value obtained by dividing the mRNA amount of Syncytin gene by the mRNA amount of GAPDH gene is defined as a correction value of mRNA amount of Syncytin gene, and taking the Syncytin gene mRNA amount correction value in cells cultured in Basal differentiation medium B (Control) as 1, a Syncytin gene mRNA amount correction value in cells cultured in each of other culture media was shown as a relative expression amount. The operation from the cell culturing to measurement of mRNA amount was repeated three times. In FIG. 2, a standard error of relative expression amount is indicated by an error bar. The relative expression amount having a statistically significant difference with respect to the relative expression amount of Control is marked with asterisks (** means a P value of 0.001 or more and less than 0.01, and *** means a P value of less than 0.001). In comparison with the cells cultured in Basal differentiation medium B (Control), the relative expression amount of Syncytin gene increased in cells that were cultured in a differentiation medium supplemented with either of S26948 (2-1) or GW 1929 (2-2) that is a PPARγ agonist, CGP 7930 (2-3) that is a GABABR positive allosteric modulator, SR 11237 (2-4) that is an RXR agonist or retinoic acid (2-5) that is an RAR agonist.

[3] = test system: GCM1-GFP knock-in human ES cells; test: Percentage of GFP positive cells (GCM1 gene expression) after differentiation culturing, Example 2; type: cell-based; conditions: day 6
Description: S26948, GW 1929, CGP 7930 and SR 11237 were dissolved in DMSO so that they were respectively 1 mM, and retinoic acid was dissolved in DMSO so that it was 10 mM, and each DMSO solution was added to Basal differentiation medium A.
On day 6 of the culturing using the differentiation medium, cells were washed twice with PBS (Invitrogen), and fixed with 4% paraformaldehyde (Wako) for 15 minutes. After subjecting the cells to a membrane permeabilizing treatment for 5 minutes by using PBS supplemented with 0.3% Triton X-100 (Wako), the cells were washed three times with PBS. Then after blocking the cells for 1 hour to 2 hours with 3% Bovine Serum Albumin (BSA, Sigma-Aldrich), the cells were immunostained by using 5 μg/ml chicken anti-GFP antibody (Abcam), 2 μg/ml goat anti-chicken IgG antibody Alexa 488 (Life technologies) and 1 μg/ml Hoechst 33342 (DOJINDO). For the obtained stained sample, the percentage of the GFP positive cells indicating expression of GCM1 gene was quantified by using a fully automatic image analyzer Arrayscan (Thermo Scientific).

[4] = test system: GCM1-GFP knock-in human ES cells; test: Percentage of GFP positive cells at different retinoic acid concentrations, Example 9; type: cell-based; conditions: day 5
[5] = test system: cell layer of cells differentiated from 201B7 cells; test: Cell layer permeability test on cell culture insert, cells differentiated from human iPS cells, Example 15; conditions: permeation amount after 120 minutes divided by that of antipyrine; apical side dosing, HBSS, LC-MS; cells from iPS line 201B7
Description: as §4, §5

[6] = test system: cell layer of cells differentiated from KhES-1 cells; test: Cell layer permeability test on cell culture insert, cells differentiated from human ES cells, Example 13; conditions: permeation amount after 120 minutes divided by that of antipyrine; apical side dosing, HBSS, LC-MS; cells from KhES-1
Description: as §1, §2, §3

[7] = 1 μM added to Basal differentiation medium A (3 ng/ml BMP4), in comparison with Control A (0.1% DMSO)
[8] = Table 4, excerpted from Li, H. et al. Arch. Toxicol. 2013
[9] = Table 5, excerpted from Li, H. et al. Arch. Toxicol. 2013

Compound | In vitro relative permeation amount [1] | relative expression amount of Syncytin gene (KhES-1 cells) | increase in the percentage of the GFP positive cells [3, 7] | Ex vivo relative permeation amount (literature value) (term placenta; [8]) | also measured
Cc1cc(=O)n(-c2ccccc2)n1C [Antipyrine] | 1 | – | – | – | In vitro relative permeation amount [2]: 1; Ex vivo relative permeation amount (literature value) (term placenta): 1
CN(CCOc1ccc(C[C@H](Nc2ccccc2C(=O)c2ccccc2)C(=O)O)cc1)c1ccccn1 [GW 1929] | – | increased | about 20% | – | –
CC1=C(/C=C/C(C)=C/C=C/C(C)=C/C(=O)O)C(C)(C)CCC1 [retinoic acid] | – | – | – | – | increase in the percentage of the GFP positive cells ([3]; 1 nM retinoic acid (Table 1 prints 1 μM) in Basal differentiation medium A, compared with Control B (no retinoic acid)): about 6%; increase in the percentage of GFP positive cells ([4]; 1 nM or 10 nM retinoic acid in Basal differentiation medium B, compared with Control without retinoic acid): about 10%; decrease in the percentage of GFP positive cells ([4]; 100 nM or more retinoic acid in Basal differentiation medium B, compared with Control): ≥ 10%
C[C@H]1O[C@@H](O[C@H]2[C@@H](O)C[C@H](O[C@H]3[C@@H](O)C[C@H](O[C@H]4CC[C@@]5(C)[C@H](CC[C@@H]6[C@@H]5C[C@@H](O)[C@]5(C)[C@@H](C7=CC(=O)OC7)CC[C@]65O)C4)O[C@@H]3C)O[C@@H]2C)C[C@H](O)[C@@H]1O [Digoxin] | 0.24 | – | – | 0.13 | –
COc1ccc2c(c1)c(CC(=O)O)c(C)n2C(=O)c1ccc(Cl)cc1 [Indomethacin] | – | – | – | 0.66 | In vitro relative permeation amount [5]: 0.62; In vitro relative permeation amount [6]: 0.72; Ex vivo relative permeation amount (literature value) (term placenta; [9]): 0.66
COC(=O)C(Cc1ccc(OCCn2c(=O)sc3cc(C(=O)c4ccccc4)ccc32)cc1)C(=O)OC [S26948] | – | increased | about 20% | – | –
CC(C)(CO)Cc1cc(C(C)(C)C)c(O)c(C(C)(C)C)c1 [CGP 7930] | – | increased | about 20% | – | –
CC1(C)CCC(C)(C)c2cc(C3(c4ccc(C(=O)O)cc4)OCCO3)ccc21 [SR 11237] | – | increased | about 20% | – | –
Cn1c(=O)c2c(ncn2C)n(C)c1=O [Caffeine] | 1.4 | – | – | 1.5 | In vitro relative permeation amount [2]: 1.1; Ex vivo relative permeation amount (literature value) (term placenta; [9]): 1.5
